The values that follow are results of earlier work, collected in EP4674947A1, “YEAST MUTANT STRAIN WITH HIGH GLYCOLIPID PRODUCTIVITY” (KAO CORPORATION, priority 2024, dated 2025).

For the series the following is noted: decreased from 72.8 mN/m; sophorolipid produced by Starmerella bombicola.

With Sophorolipid, the “surface tension of water decreased to” value is 30 mN/m.
